Measurements as given in PubChem BioAssay (NCI).
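Step 1: Grow cells in 96-well plates. Step 2: Expose to compound for 48 hours at 5 concentrations. Step 3: Interpolate endpoints linearly; if unreached, use highest concentration. GI50 marks 50% less growth. TGI marks complete inhibition of growth.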 Where a SMILES comes first, the peptide text is derived from it. [ ]: non-standard residue; d: D form. Phe(ol) = N[C@H](CO)Cc1ccccc1; dIva = CC[C@@](C)(N)C(=O)O; Aib = CC(C)(N)C(=O)O

Legend:
Experiment in all cases: DTP human tumour cell line panel, 48 h
TK-10 renal = test system: TK-10 renal
A549 NSCLC = test system: A549 NSCLC
SK-MEL-2 melanoma = test system: SK-MEL-2 melanoma
RXF 393 renal = test system: RXF 393 renal
OVCAR-5 ovarian = test system: OVCAR-5 ovarian
HCT-15 colon = test system: HCT-15 colon
OVCAR-4 ovarian = test system: OVCAR-4 ovarian
HS 578T breast = test system: HS 578T breast
OVCAR-8 ovarian = test system: OVCAR-8 ovarian
SR leukemia = test system: SR leukemia
HL-60(TB) leukemia = test system: HL-60(TB) leukemia
UO-31 renal = test system: UO-31 renal
K-562 leukemia = test system: K-562 leukemia
KM12 colon = test system: KM12 colon
SN12C renal = test system: SN12C renal
ACHN renal = test system: ACHN renal
MDA-MB-435 = test system: MDA-MB-435
SNB-19 CNS = test system: SNB-19 CNS
U251 CNS = test system: U251 CNS
HCT-116 colon = test system: HCT-116 colon
SK-MEL-28 melanoma = test system: SK-MEL-28 melanoma
M14 melanoma = test system: M14 melanoma
PC-3 prostate = test system: PC-3 prostate
LOX IMVI melanoma = test system: LOX IMVI melanoma
NCI-H226 lung = test system: NCI-H226 lung
SK-OV-3 ovarian = test system: SK-OV-3 ovarian
MDA-MB-231 breast = test system: MDA-MB-231 breast
HOP-92 NSCLC = test system: HOP-92 NSCLC

For `CC[C@@](C)(NC(=O)C(C)(C)NC(=O)[C@@H](NC(=O)[C@@H]1CCCN1C(=O)C(C)(C)NC(=O)[C@H](CC(C)C)NC(=O)CNC(=O)C(C)(C)NC(=O)[C@@H](NC(=O)C(C)(C)NC(=O)[C@H](CCC(N)=O)NC(=O)[C@H](C)NC(=O)C(C)(C)NC(=O)[C@H](C)NC(=O)C(C)(C)NC(=O)[C@@H]1CCCN1C(=O)C(C)(C)NC(C)=O)C(C)C)C(C)C)C(=O)N[C@@H](CCC(N)=O)C(=O)N[C@@H](CCC(N)=O)C(=O)N[C@H](CO)Cc1ccccc1` (Ac-[Aib]P[Aib]A[Aib]AQ[Aib]V[Aib]GL[Aib]PV[Aib][dIva]QQ[Phe(ol)]), which GI50 (TK-10 renal) is on record?
The GI50 was over 4250 nM.

What about the TGI (TK-10 renal) of the same molecule?
The TGI was over 4250 nM.

What about the GI50 (A549 NSCLC) of the same molecule?
Its GI50 is 2390 nM.

And the TGI (A549 NSCLC)?
Its TGI is over 4250 nM.

What about the GI50 (SK-MEL-2 melanoma) of the same molecule?
The GI50 was 1370 nM.

And the TGI (SK-MEL-2 melanoma)?
Its TGI is over 4250 nM.

And the GI50 (RXF 393 renal)?
Its GI50 is 964 nM.

What about the TGI (RXF 393 renal) of the same molecule?
The TGI was 3110 nM.

What about the GI50 (OVCAR-5 ovarian) of the same molecule?
The GI50 was 1640 nM.

And the TGI (OVCAR-5 ovarian)?
Its TGI is over 4250 nM.

And the GI50 (HCT-15 colon)?
Its GI50 is over 4250 nM.

And the TGI (HCT-15 colon)?
The TGI was over 4250 nM.

What about the GI50 (OVCAR-4 ovarian) of the same molecule?
Its GI50 is 1570 nM.

What about the TGI (OVCAR-4 ovarian) of the same molecule?
Its TGI is over 4250 nM.

And the GI50 (HS 578T breast)?
Its GI50 is 2480 nM.

And the TGI (HS 578T breast)?
Its TGI is over 4250 nM.

And the GI50 (OVCAR-8 ovarian)?
The GI50 was over 4250 nM.

What about the TGI (OVCAR-8 ovarian) of the same molecule?
Its TGI is over 4250 nM.

What about the GI50 (SR leukemia) of the same molecule?
Its GI50 is 1410 nM.

And the TGI (SR leukemia)?
Its TGI is over 4250 nM.

What about the GI50 (HL-60(TB) leukemia) of the same molecule?
The GI50 was 960 nM.

And the TGI (HL-60(TB) leukemia)?
The TGI was 2080 nM.

And the GI50 (UO-31 renal)?
The GI50 was over 4250 nM.

And the TGI (UO-31 renal)?
Its TGI is over 4250 nM.

What about the GI50 (K-562 leukemia) of the same molecule?
The GI50 was 2400 nM.

And the TGI (K-562 leukemia)?
The TGI was over 4250 nM.

What about the GI50 (KM12 colon) of the same molecule?
The GI50 was 1470 nM.

And the TGI (KM12 colon)?
Its TGI is over 4250 nM.

And the GI50 (SN12C renal)?
Its GI50 is 789 nM.

What about the TGI (SN12C renal) of the same molecule?
Its TGI is over 4250 nM.

And the GI50 (ACHN renal)?
The GI50 was over 4250 nM.

And the TGI (ACHN renal)?
Its TGI is over 4250 nM.

What about the GI50 (MDA-MB-435) of the same molecule?
Its GI50 is 1160 nM.

And the TGI (MDA-MB-435)?
Its TGI is over 4250 nM.

What about the GI50 (SNB-19 CNS) of the same molecule?
Its GI50 is 1270 nM.

And the TGI (SNB-19 CNS)?
Its TGI is over 4250 nM.

And the GI50 (U251 CNS)?
The GI50 was 1610 nM.

And the TGI (U251 CNS)?
Its TGI is over 4250 nM.

And the GI50 (HCT-116 colon)?
The GI50 was 1750 nM.

What about the TGI (HCT-116 colon) of the same molecule?
The TGI was over 4250 nM.

What about the GI50 (SK-MEL-28 melanoma) of the same molecule?
The GI50 was 1660 nM.

What about the TGI (SK-MEL-28 melanoma) of the same molecule?
Its TGI is over 4250 nM.

And the GI50 (M14 melanoma)?
Its GI50 is over 4250 nM.

What about the TGI (M14 melanoma) of the same molecule?
Its TGI is over 4250 nM.

What about the GI50 (PC-3 prostate) of the same molecule?
The GI50 was 1660 nM.

And the TGI (PC-3 prostate)?
The TGI was over 4250 nM.

And the GI50 (LOX IMVI melanoma)?
Its GI50 is 1360 nM.

And the TGI (LOX IMVI melanoma)?
Its TGI is over 4250 nM.

What about the GI50 (NCI-H226 lung) of the same molecule?
Its GI50 is over 4250 nM.

And the TGI (NCI-H226 lung)?
Its TGI is over 4250 nM.

And the GI50 (SK-OV-3 ovarian)?
The GI50 was 1550 nM.

What about the TGI (SK-OV-3 ovarian) of the same molecule?
Its TGI is over 4250 nM.

What about the GI50 (MDA-MB-231 breast) of the same molecule?
Its GI50 is 1430 nM.

And the TGI (MDA-MB-231 breast)?
Its TGI is over 4250 nM.

What about the GI50 (HOP-92 NSCLC) of the same molecule?
The GI50 was 1060 nM.

What about the TGI (HOP-92 NSCLC) of the same molecule?
The TGI was 2950 nM.
